Assay results taken from US4556713A, “6-Fluoro-5-nitroquinaldine” (Riker Laboratories, Inc., priority 1984, dated 1985).
Converted amounts (≈) assume the structure as drawn. Where two headings read alike, the source gives them in different places.

How the values were obtained:
Escherichia coli = experiment: Plate dilution antimicrobial susceptibility, Escherichia coli; conditions: for MIC: 24 h, read-out: Minimum Inhibitory Concentration
Method: (§1) Tryptone soy agar (oxoid) of the following composition is the culture medium.
(§2) A series of plates with these concentrations is prepared. Ten percent horse serum is added to one series of such plates. Aliquots of broth culture of any of twelve species of microorganisms are innoculated onto the agar plates contaning the various compound concentrations. The plates are incubated at 37° C. in a 10 percent carbon dioxide atmosphere for 18 to 24 hours. The microbial growth on each plate is read visually, and minimal inhibitory concentrations are recorded.
(§3) The tests were run both in the absence and in the presence of horse serum as described hereinabove.

Staphylococcus aureus = experiment: Plate dilution antimicrobial susceptibility, Staphylococcus aureus; conditions: for MIC: 24 h, read-out: Minimum Inhibitory Concentration
Method: as §1, §2, §3

ENTEROCOCCUS = experiment: Plate dilution antimicrobial susceptibility, Enterococcus; conditions: for MIC: 24 h
Method: as §1, §2, §3

Pseudomonas aeruginosa = experiment: Plate dilution antimicrobial susceptibility, Pseudomonas aeruginosa; conditions: for MIC: 24 h, read-out: Minimum Inhibitory Concentration
Method: as §1, §2, §3

Klebsiella pneumoniae = experiment: Plate dilution antimicrobial susceptibility, Klebsiella pneumoniae; conditions: for MIC: 24 h, read-out: Minimum Inhibitory Concentration
Method: as §1, §2, §3

STREP. SPECIES = experiment: Plate dilution antimicrobial susceptibility, Strep. species; conditions: for MIC: 24 h, read-out: Minimum Inhibitory Concentration, Strep. species; for Minimum Inhibitory Concentration: Strep. species
Method: as §1, §2, §3

[1] = test system: gram-positive and gram-negative microorganisms; experiment: Plate dilution method, antimicrobial activity in general (gram-positive and gram-negative microorganisms); type: cell-based; conditions: in vitro
[2] = presence of 10 percent horse serum
[3] = read-out: Minimum Inhibitory Concentration, Enterococcus, absence of horse serum
[4] = read-out: Minimum Inhibitory Concentration, Enterococcus, presence of 10 percent horse serum

Compound | Minimum Inhibitory Concentration (Escherichia coli; [2]) | Minimum Inhibitory Concentration (Staphylococcus aureus; [2]) | Minimum Inhibitory Concentration (ENTEROCOCCUS; [2]) | Minimum Inhibitory Concentration (Pseudomonas aeruginosa; [2]) | Minimum Inhibitory Concentration (Klebsiella pneumoniae; [2]) | Minimum Inhibitory Concentration (Klebsiella pneumoniae; absence of horse serum) | Minimum Inhibitory Concentration (Escherichia coli; absence of horse serum) | Minimum Inhibitory Concentration (Staphylococcus aureus; absence of horse serum) | Minimum Inhibitory Concentration (ENTEROCOCCUS; absence of horse serum) | Minimum Inhibitory Concentration (STREP. SPECIES; absence of horse serum) | Minimum Inhibitory Concentration (STREP. SPECIES; [2]) | Minimum Inhibitory Concentration (Pseudomonas aeruginosa; absence of horse serum) | other results
CC1CCc2c(Br)c(F)cc3c(=O)c(C(=O)[O-])cn1c23.[Na+] (stereo not shown) [8-Br, 9-F sodium salt, sodium 8-bromo-6,7-dihydro-9-fluoro-5-methyl-1-oxo-1H,5H-benzo[ij]quinolizine-2-carboxylate] | .1 mg/L | .1 mg/L | 1 mg/L | 10 mg/L |  |  |  |  |  |  |  |  | 
CC1CCc2c(Br)c(F)cc3c(=O)c(C(=O)O)cn1c23 (stereo not shown) [8-Br, 9-F, 8-bromo-6,7-dihydro-9-fluoro-5-methyl-1-oxo-1H,5H-benzo[ij]quinolizine-2-carboxylic acid] | .1 mg/L | .1 mg/L |  | 10 mg/L | 1 mg/L |  |  |  |  |  |  |  | MIC (Klebsiella pneumoniae): 1 µg/mL (≈ 2.94 µM); MIC (Escherichia coli): 0.1 µg/mL (≈ 0.294 µM); MIC (Staphylococcus aureus): 0.1 µg/mL (≈ 0.294 µM); MIC (ENTEROCOCCUS; [3]): 1 µg/mL (≈ 2.94 µM); MIC (ENTEROCOCCUS; [4]): 1 µg/mL; MIC (STREP. SPECIES; absence of horse serum): 1 µg/mL (≈ 2.94 µM); MIC (STREP. SPECIES; [2]): 10 µg/mL; MIC (Pseudomonas aeruginosa): 10 µg/mL (≈ 29.4 µM)
Cc1cc2c(=O)c(C(=O)O)cn3c2c(c1Cl)CCC3C (stereo not shown) [8-Cl, 9-CH3] | 10 mg/L | 100 mg/L | I | I | 100 mg/L | 100 mg/L | 10 mg/L | 10 mg/L | 100 mg/L | 100 mg/L | 100 mg/L | 100 mg/L | 
CC1CCc2c(Cl)c(F)cc3c(=O)c(C(=O)[O-])cn1c23.[Na+] (stereo not shown) [8-Cl, 9-F sodium salt, sodium 8-chloro-6,7-dihydro-9-fluoro-5-methyl-1-oxo-1H,5H-benzo[ij]quinolizine-2-carboxylate] |  |  | 1 mg/L | 10 mg/L | 1 mg/L |  |  |  |  |  |  |  | 
CC1CCc2c(Cl)c(F)cc3c(=O)c(C(=O)O)cn1c23 (stereo not shown) [8-Cl, 9-F, 8-chloro-6,7-dihydro-9-fluoro-5-methyl-1-oxo-1H,5H-benzo[ij]quinolizine-2-carboxylic acid] | .1 mg/L |  |  | 10 mg/L | 1 mg/L |  |  |  |  |  |  |  | MIC (Klebsiella pneumoniae): 1 µg/mL (≈ 3.38 µM); MIC (Escherichia coli): 0.1 µg/mL (≈ 0.338 µM); MIC (Staphylococcus aureus): 0.1 µg/mL (≈ 0.338 µM); MIC (ENTEROCOCCUS; [3]): 1 µg/mL (≈ 3.38 µM); MIC (ENTEROCOCCUS; [4]): 10 µg/mL; MIC (STREP. SPECIES; [2]): 10 µg/mL; MIC (Pseudomonas aeruginosa): 10 µg/mL (≈ 33.8 µM)
COc1cc2c(=O)c(C(=O)O)cn3c2c(c1Cl)CCC3C (stereo not shown) [8-Cl, 9-OCH3] | 10 mg/L | 10 mg/L | 100 mg/L | I | 100 mg/L | 100 mg/L | 10 mg/L | 10 mg/L | 100 mg/L | 100 mg/L | 100 mg/L | I | 
CC1CCc2c(N)c(Cl)cc3c(=O)c(C(=O)O)cn1c23 (stereo not shown) [8-NH2,9-Cl] | 10 mg/L | 100 mg/L | I | I | 100 mg/L | 100 mg/L | 10 mg/L | 100 mg/L | I | I | I | I | 
CC(=O)Nc1c(Cl)cc2c(=O)c(C(=O)O)cn3c2c1CCC3C (stereo not shown) [8-NHCOCH3, 9-Cl] | 10 mg/L | I | I | I | 100 mg/L | 100 mg/L | 10 mg/L | I | I | I | I | I | 
CC1CCc2c(N)c(F)cc3c(=O)c(C(=O)O)cn1c23 (stereo not shown) [8-amino compound, 8-amino-6,7-dihydro-9-fluoro-5-methyl-1-oxo-1H,5H-benzo[ij]quinolizine-2-carboxylic acid] |  |  |  |  |  |  |  |  |  |  |  |  | antimicrobial activity (in words) [1]: good antimicrobial activity against many species of microorganisms
CC1CCc2c(Cl)ccc3c(=O)c(C(=O)O)cn1c23 (stereo not shown) [Example 8-Cl] | 1 mg/L | 1 mg/L | 10 mg/L | 100 mg/L | 10 mg/L | 10 mg/L | 1 mg/L | 1 mg/L | 10 mg/L | 10 mg/L | 100 mg/L | 100 mg/L | 
CC1CCc2cc(Br)cc3c(=O)c(C(=O)O)cn1c23 (stereo not shown) [Example 9-Br] | 10 mg/L | 100 mg/L |  | I |  |  | 10 mg/L | 100 mg/L |  | 100 mg/L | 100 mg/L | I | 
CC1CCc2cc(Cl)cc3c(=O)c(C(=O)O)cn1c23 (stereo not shown) [Example 9-Cl] | 1 mg/L | 10 mg/L |  | I |  |  | 1 mg/L | 10 mg/L |  | 100 mg/L | 100 mg/L | I | 
CC1CCc2cc(F)cc3c(=O)c(C(=O)O)cn1c23 (stereo not shown) [Example 9-F] | 1 mg/L | 10 mg/L | 100 mg/L | 100 mg/L | 1 mg/L | 1 mg/L | 1 mg/L | 10 mg/L | 100 mg/L | 100 mg/L | 100 mg/L | 100 mg/L | 
